According to patent publication US11572358B2, “Solid forms of an sGC stimulator” (Cyclerion Therapeutics, Inc., priority 2016, dated 2023):

Experiment: Storage stability at 40° C. and 75% relative humidity, XRPD trace before and after
Format: physicochemical
Settings: stored for 14 months at 40° C. and 75% relative humidity
Protocol: When comparing XRPD spectra, a spectrum will be “substantially similar” to one shown in this disclosure for a particular solid form of Compound I, wherein the characteristic peaks in said spectrum are measured at the same values of °2θ as those shown in the figure of this disclosure, or within a range of + or −0.5 units of °2θ from those peaks shown in said figure.
X-Ray Powder Diffraction traces were obtained using a D8 Advance, Bruker apparatus; using one of two Methods:
Scan 5-45° 2-theta, 0.02° step size, 1 sec per step; or
Scan 3-40° 2-theta, 0.037° step size, 1.5 sec per step

XRPD trace after storage: essentially unchanged
Structure (SMILES): NC(=O)[C@](O)(CNc1nc(-c2cc(-c3ccon3)n(Cc3ccccc3F)n2)ncc1F)C(F)(F)F [Form B, (R)-3,3,3-trifluoro-2-(((5-fluoro-2-(1-(2-fluorobenzyl)-5-(isoxazol-3-yl)-1H-pyrazol-3-yl)pyrimidin-4-yl)amino)methyl)-2-hydroxypropanamide]
